Source: US10919888B2, “Benzyl amine-containing heterocyclic compounds and compositions useful against mycobacterial infection” (priority 2015, dated 2021)
Values belong to the compound of their own block, whether it stands above or below them.

Tests used:
[1] = system: mice; conditions: mouse
[2] = system: Mycobacterium avium 101; assay: In vivo efficacy in mice infected with Mycobacterium avium 101 (FIG. 2); conditions: dosed orally with 25 mg/kg and 100 mg/kg
Method: Panel A is the log 10 colony forming units (CFU) drop in bacteria in the lungs when treated with ND-10885 (at 25 and 100 mg/kg), rifampicin (RMP, 20 mg/kg) and a combination of ND-10885 (100 mg/kg) and rifampicin (20 mg/kg). Panel B is the log 10 colony forming units (CFU) drop in bacteria in the spleen when treated with ND-10885 (at 25 and 100 mg/kg), rifampicin (RMP, 20 mg/kg) and a combination of ND-10885 (100 mg/kg) and rifampicin (20 mg/kg). Panel C is the log 10 colony forming units (CFU) drop in bacteria in the liver when treated with ND-10885 (at 25 and 100 mg/kg), rifampicin (RMP, 20 mg/kg) and a combination of ND-10885 (100 mg/kg) and rifampicin (20 mg/kg).

[3] = in vivo; conditions: mouse, MTD (maximum tolerated dose)
[4] = system: M. avium; assay: Murine MAC infection model, two week infection in Balb/c mice; format: in vivo, Mycobacterium avium; conditions: two week infection experiment, control
Source text: AND CHEMOTHERAPY, 1995, 39(8), 1647-1654 for review of MAC infection model and Antimicrob Agents Chemother. 1992, 36(11):2413-7 for a typical experiment (done with clarithromycin).

- melting point: 186 to 187 °C
Compound: Cc1ccn2c(C(=O)NCc3ccc(S(F)(F)(F)(F)F)cc3)c(C)nc2c1

- melting point: 191 to 192 °C
Compound: CCc1nc2ccc(Cl)cn2c1C(=O)NCc1ccc(S(F)(F)(F)(F)F)cc1

- melting point: 176 to 177 °C
Compound: Cc1ccc2nc(C)c(C(=O)NCc3ccc(S(F)(F)(F)(F)F)cc3)n2c1

Compound: Cc1ccn2c(C(=O)NCc3ccc(N4CCOCC4)cc3)c(C)nc2c1 [ND-10823]
- dose limiting toxicity / in vivo toxicity [1]: 100 mg/kg

Compound: Cc1ccn2c(C(=O)NCc3ccc4c(c3)CCO4)c(C)nc2c1 [ND-10885]
- in vivo efficacy (log 10 CFU drop in lungs, spleen, liver) [2]: validate the in vivo efficacy

Compound: Cc1ccn2c(C(=O)NCc3ccc(N4CCCN(c5ccc(C(F)(F)F)cc5)CC4)c(F)c3)c(C)nc2c1 [ND-11598]
- MTD [3]: ≥ 250 mg/kg

Compound: CCc1nc2ccc(Cl)cn2c1C(=O)NCc1ccc(N2CCSCC2)c(F)c1 [ND-11622]
- MTD [3]: ≥ 250 mg/kg

Compound: CO[C@H]1/C=C/O[C@@]2(C)Oc3c(C)c(O)c4c(O)c(c(/C=N/N5CCN(C)CC5)c(O)c4c3C2=O)NC(=O)/C(C)=C\C=C\[C@H](C)[C@H](O)[C@@H](C)[C@@H](O)[C@@H](C)[C@H](OC(C)=O)[C@@H]1C [rifampicin]
- log 10 CFU drop in the amount of M. avium in the lungs [4]: 1.8 log 10 CFU
